Literature values as cited in patent US10190039B2, “Synthetic acid compositions alternatives to conventional acids in the oil and gas industry” (priority 2014, dated 2019).

Conditions: death in 2-3 minutes

Question: For `Cl` [hydrogen chloride gas, hydrogen chloride], which “Level at which death can occur” value is on record?
Answer: 1300-2000 ppm
